From patent US9511062B2, “Compacted rumen protected nutrient pellets and method of manufacture” (Qualitech, Inc., priority 2011, dated 2016) come the findings set out here.

Test [1] can be described thus: Rumen protected niacin, effect upon milk production. In kind it is in vivo, Holstein cows. Particulars: 12 g top-dressed on TMR twice daily (N12 / BN12). An excerpt:
Six multiparous rumen-cannulated Holstein cows (BW=656 kg) after peak lactation (128±23 days in milk) were assigned to 1 of 6 treatments in a completely randomized 6×6 Latin Square with an extra period to measure carry-over effects. Periods consisted of a 7-day (d 1-7) adaptation period followed by a 7-day (d 8-14) measurement period. Cows were fed according to NRC (2001) recommendations to meet or exceed requirements. Treatments were: CON (no niacin), INF (abomassal infusion of 12 g unprotected niacin (UN)), N12 (12 g UN), BN3 (3 g PN), BN6 (6 g PN), and BN12 (12 g PN). Treatments N12, BN3, BN6, and BN 12 were top-dressed on the Total Mixed Ration (TMR) twice daily. The daily dose of treatment INF was divided in 5 equal portions and infused during the day every 4 hours. Cows receiving treatments other than INF were infused with the same volume of water at the same time.

A short description of test [2]: Rumen protected niacin, response to epinephrine (Epi) challenge. In kind it is in vivo, Holstein cows. The text has this: Niacin may modulate lipolytic responses in adipose tissue but is highly degradable in the rumen so that oral administration leads to unknown quantities absorbed. We determined responses to epinephrine (Epi) challenge as affected by three levels of protected niacin (PN) or unprotected niacin (UN) in the diet or infused abomasally.
Six multiparous rumen-cannulated Holstein cows (BW=656 kg; 128±23 days in milk) were used in a completely randomized 6×6 Latin Square with an extra period to quantify carryover effects. Periods consisted of 7 days for adaptation followed by 7 days for measurements. Cows were fed according to NRC (2001) recommendations. Treatments were: CON (no niacin), INF (abomassal infusion of 12 g UN), N12 (12 g UN), BN3 (3 g PN), BN6 (6 g PN), and BN12 (12 g PN). Treatments N12, BN3, BN6, and BN12 were top-dressed on the Total Mixed Ration (TMR) twice daily. Treatment INF was divided in 5 equal portions and infused every 4 hours. Cows receiving treatments other than INF were infused with the same volume of water at the same times.
On day 12, cows received an i.v, infusion of Epi (1.4 μg/kg BW). […] Total area under the curve (AUC) responses of nonesterified Fatty Acids (NEFA) and glucose concentrations in plasma were calculated using the trapezoidal rule.

Consider `O=C(O)c1cccnc1` [UN, niacin], for which the “dry matter intake (DMI)” value in test [1] was found to be 24.3 ± 1 kg. Moreover, the “milk fat/protein ratio (F/P)” value in test [1] (P=0.03) came out at 1.15±0.09. Moreover, the “Feed efficiency (FE=energy-corrected milk/DMI)” value in test [1] (P=0.04) is given as 1.5±0.1. In test [1] (P=0.06), this molecule gave a Milk yield of 37.1 ± 2.3 kg. Besides, the “Time to peak NEFA concentration” value in test [2] (12 g top-dressed on TMR twice daily (N12 / BN12), i.v. Epi 1.4 μg/kg BW on day 12, plasma) was determined as 22.1 ± 3.2 min. In addition, the “glucose AUC” value in test [2] (abomasal infusion of 12 g (INF) compared with N12, Epi challenge, P=0.04) is “greater AUC than N12”.
